# According to patent US20100035984A1, “Use of an antibacterial compound which is derived from alliaceae, as a natural additive in animal feed” (DMC Research Center, S.L., priority 2006, published 2010):
# Values joined by “and” are separate entries in the source; they are usually repeats but may differ in a detail not shown here. Equal values may be shown once. Marks after values point to notes of the source that are not given here.
# Experiments:
# Format in all cases: cell-based
# [1] = tested on: microbiota of the ruminal inoculum (ruminal fluid of goats); experiment: In vitro ruminal degradation of experimental diets (Example 3); details: for DDM (degradability of dry matter), mean / DOM (degradability of organic matter), mean: 48 hours
# Method: The Effect of Different Doses of the Compounds Object of Study on the Ruminal Degradation of Two Different Diets the Composition of which is in Table 1 is Studied The diets consist of alfalfa hay (standard maintenance diet for ruminant animals) or of a mixture of 50% alfalfa hay and a commercial concentrate (standard lactation diet for ruminant animals). In vitro incubation is performed using ruminal fluid of goats as inoculum.
# [2] = tested on: ruminal fermentation (methane-producing microorganisms); experiment: Production of gas by in vitro fermentation of the diets (Example 4)
# Method: The effect of different doses of the compounds object of study on the production of gas promoted by in vitro fermentation for 24 and 48 hours of the diets the composition of which is included in Table 1 is studied.
# [3] = tested on: bifidobacteria; experiment: In vitro fermentation of pig feces, bifidobacteria count (Example 2); details: 200 mg/L, 24 hours
# Method: (§1) The mean values affected by different indexes indicate significant differences (p<0.05). The vertical axis of the graph determines the log 10(cfu/g feces) and the horizontal axis determines the compound. The described assays are carried out using complete bacterial inocula obtained from feces of piglets in post-weaning stage. Two of the compounds (referenced as PTS and as PTSO) are assayed in a lower dose range (50-400 mg/L).
# [4] = tested on: lactobacilli; experiment: In vitro fermentation of pig feces, lactobacilli count (Example 2); details: 200 mg/L, 24 hours
# Method: as §1
# [5] = tested on: total anaerobes, total aerobes, enterobacteria, coliform bacteria, bacteroides, clostridia, lactobacilli and bifidobacteria; experiment: In vitro fermentation of pig feces inoculum, counts of all bacterial groups (Example 1); details: 50 to 2000 mg/L in culture medium, 24 hours in vitro fermentation, inocula from piglet feces
# Method: FIG. 1 is a graph relating to Example 1 (study of the porcine digestive microbial composition) showing the effect of different concentrations of the compound PTSO after 24 hours of in vitro fermentation on the total anaerobic bacteria, total aerobic bacteria, enterobacteria, coliform bacteria, bacteroides, clostridia, lactobacilli and bifidobacteria count present in pig feces. The vertical axis of the graph determines the log 10(cfu/g feces) and the horizontal axis determines the bacterial group.
# The described assays are carried out using complete bacterial inocula obtained from feces of piglets in post-weaning stage.
# [6] = Alfalfa hay + concentrate, 10 ppm
# [7] = Alfalfa hay + concentrate, 25 ppm
# [8] = Alfalfa hay + concentrate, 50 ppm
# [9] = Alfalfa hay + concentrate, 300 ppm
# [10] = Alfalfa hay + concentrate, 750 ppm
# [11] = Alfalfa hay + concentrate, 1000 ppm
# [12] = Alfalfa hay + concentrate, 2000 ppm
# [13] = diet D1, 48 hours, 10 ppm, replicates
# [14] = diet D1, 48 hours, 25 ppm, replicates
# [15] = diet D1, 48 hours, concentration 50, replicates
# [16] = diet D1, 48 hours, concentration 300, replicates
# [17] = diet D1, 48 hours, concentration 750, replicates
# [18] = diet D1, 48 hours, concentration 1000, replicates
# [19] = diet D2, 48 hours, 10 ppm, replicates
# [20] = diet D2, 48 hours, 25 ppm, replicates
# [21] = diet D2, 48 hours, concentration 50, replicates
# [22] = diet D2, 48 hours, concentration 300, replicates
# [23] = diet D2, 48 hours, concentration 750, replicates
# [24] = diet D2, 48 hours, concentration 1000, replicates
# [25] = diet D2, 48 hours, concentration 2000, replicates
substance,measurement,setting,value
propyl propylthiosulfonate [PTSO],"DDM (degradability of dry matter), mean",[1]; [6],63.4^a
same,"DOM (degradability of organic matter), mean",[1]; [6],63.8^a
same,"DDM (degradability of dry matter), mean",[1]; [7],62.5^a
same,"DOM (degradability of organic matter), mean",[1]; [7],60.6^a
same,"DDM (degradability of dry matter), mean",[1]; [8],61.1^a
same,"DOM (degradability of organic matter), mean",[1]; [8],63.5^a
same,"DDM (degradability of dry matter), mean",[1]; [9],45.2^b
same,"DOM (degradability of organic matter), mean",[1]; [9],44.7^b
same,"DDM (degradability of dry matter), mean",[1]; [10],38.1^c
same,"DOM (degradability of organic matter), mean",[1]; [10],37.4^c
same,"DDM (degradability of dry matter), mean",[1]; [11],37.2^c
same,"DOM (degradability of organic matter), mean",[1]; [11],36.0^c
same,"DDM (degradability of dry matter), mean",[1]; [12],36.7^c
same,"DOM (degradability of organic matter), mean",[1]; [12],32.3^c
same,"DDM (degradability of dry matter), mean","[1]; Alfalfa hay, 10 ppm",55.5^a
same,"DOM (degradability of organic matter), mean","[1]; Alfalfa hay, 10 ppm",48.4^ab
same,"DDM (degradability of dry matter), mean","[1]; Alfalfa hay, 25 ppm",54.5^a
same,"DOM (degradability of organic matter), mean","[1]; Alfalfa hay, 25 ppm",53.2^ab
same,"DDM (degradability of dry matter), mean","[1]; Alfalfa hay, 50 ppm",45.6^b
same,"DOM (degradability of organic matter), mean","[1]; Alfalfa hay, 50 ppm",45.9^b
same,"DDM (degradability of dry matter), mean","[1]; Alfalfa hay, 300 ppm",36.2^c
same,"DOM (degradability of organic matter), mean","[1]; Alfalfa hay, 300 ppm",35.5^c
same,"DDM (degradability of dry matter), mean","[1]; Alfalfa hay, 750 ppm",30.4^d
same,"DOM (degradability of organic matter), mean","[1]; Alfalfa hay, 750 ppm",29.9^c
same,"DDM (degradability of dry matter), mean","[1]; Alfalfa hay, 1000 ppm",34.5^c
same,"DOM (degradability of organic matter), mean","[1]; Alfalfa hay, 1000 ppm",33.7^c
same,"DDM (degradability of dry matter), mean","[1]; Alfalfa hay, 2000 ppm",30.3^d
same,"DOM (degradability of organic matter), mean","[1]; Alfalfa hay, 2000 ppm",29.0^c
same,Mean DDM,"[1]; Table 3: diet D1, 48 hours, 2000 ppm",31.6%
same,DDM (degradation of dry matter),"[1]; Table 3: diet D1, 48 hours, 2000 ppm, replicates",30.9% and 30.2% and 32.0% and 31.4% and 32.2% and 32.7%
same,DDM,"[1]; Table 4: diet D1, 48 hours, concentration 2000, replicates",31.9% and 28.7%
same,effect on degradation of dry matter and organic matter,"[1]; diet D1, 2000 ppm, 48 hours in vitro incubation",higher reduction
same,DDM,[1]; [13],54.9% and 56.1%
same,DOM,[1]; [13],45.0% and 51.8%
same,DDM,[1]; [14],54.1% and 55.0%
same,DOM,[1]; [14],52.9% and 53.6%
same,DDM,[1]; [15],45.5% and 45.7%
same,DOM,[1]; [15],46.0% and 45.7%
same,DDM,[1]; [16],36.6% and 35.8%
same,DOM,[1]; [16],36.2% and 34.9%
same,DDM,[1]; [17],31.0% and 29.9%
same,DOM,[1]; [17],30.2% and 29.6%
same,DDM,[1]; [18],33.4% and 35.6%
same,DOM,[1]; [18],32.6% and 34.7%
same,DOM,"[1]; diet D1, 48 hours, concentration 2000, replicates",30.6% and 27.5%
same,DDM,[1]; [19],63.1% and 63.7%
same,DOM,[1]; [19],63.2% and 64.3%
same,DDM,[1]; [20],62.4% and 62.7%
same,DOM,[1]; [20],58.4% and 62.8%
same,DDM,[1]; [21],61.1% and 63.9%
same,DOM,[1]; [21],62.2% and 64.8%
same,DDM,[1]; [22],44.4% and 46.0%
same,DOM,[1]; [22],43.7% and 45.6%
same,DDM,[1]; [23],39.9% and 36.3%
same,DOM,[1]; [23],39.0% and 35.8%
same,DDM,[1]; [24],35.9% and 38.4%
same,DOM,[1]; [24],34.8% and 37.3%
same,DDM,[1]; [25],37.1% and 36.3%
same,DOM,[1]; [25],32.7% and 32.0%
same,"inhibitory effect on production of fermentation gas, dependence on dose",[2],dose-dependent
same,"inhibitory effect on production of fermentation gas, dependence on time",[2]; 24 and 48 hours,time-dependent
same,doses at which the inhibitory effect on production of fermentation gas is observed,[2]; diet D2,10 ppm
same,bifidobacteria logarithmic reduction in the population,[3],approximately 50%
same,lactobacilli logarithmic reduction in the population,[4],approximately 50%
same,growth of the bacterial groups studied,[5],inhibited the growth of all the bacterial groups studied
